{
  "source": "patent US12685722B2",
  "about": "“Compositions of matter and pharmaceutical compositions” (Atai Therapeutics, Inc., priority 2020, dated 2026)",
  "origin": "cited, not measured here",
  "data": [
    {"smiles": "CN(C)CCc1c[nH]c2cccc(O)c12", "note": "[psilocin]", "values": [
      {"measurement": "in vivo half-life", "value": "about 50 minutes"},
      {"measurement": "psychedelic experiences lasting", "setting": "in vivo", "value": "4 to 6", "unit": "h"}
    ]}
  ]
}
